From US6811965B2, “Kidney perfusion solution containing nitric oxide donor, inhibitor of NOS2, glutathione, gluconate and methods of use” (priority 2000, dated 2004)

What was measured:
[1] = system: porcine coronary arteries; conditions: porcine model of balloon angioplasty and subsequent endovascular radiation; cited from earlier work
[2] = system: Porcine kidneys; test: Pulsatile perfusion preservation of explanted porcine kidneys; conditions: GSNO 90 micromolar, L-NIL 694 micromolar
Experimental: GSNO and L-NIL dihydrate hydrochloride were purchased from Alexis Corporation (San Diego, Calif.). Solution A was prepared by weighing out 30 milligrams of GSNO powder and adding it to 1 milliliter of Belzer Machine Perfusion solution (Transmed, Elk Grove, Minn.), and then injecting it into 1 liter of Belzer Perfusion solution while the perfusion solution was circulating through a Waters Instruments (Rochester, Minn.) kidney perfusion circuit (final concentration: 30 milligrams/liters; 90 micromolar). Solution B was prepared by weighing out 187 milligrams of L-NIL dihydrate hydrochloride powder and adding it to 3.5 milliliters of Belzer Machine Perfusion solution, and then injecting it into Solution A while the solution was circulating through a Waters Instruments kidney perfusion circuit (final concentration: 187 milligrams/liter; 694 micromolar).
Porcine kidneys were obtained following a warm ischemic time of 30-45 minutes. The kidneys were flushed with 1 L of Lactated Ringer's solution at 5 degrees C., and then flushed with 1 L Viaspan™ solution (DuPont, Wilmington, Del.) at 5 degrees C. The kidneys were then stored at 5 degrees C. for 3-30 h, at which time the kidneys were placed on a Waters Instruments (Rochester, Minn.) kidney perfusion circuit and perfused with 1 L of Belzer Machine Perfusion solution (Transmed, Elk Grove, Minn.). During the perfusion period, the kidneys were kept at a constant pressure of 40 mmHg. Eight kidneys were perfused with Belzer Machine Perfusion solution only, another eight kidneys were perfused with Belzer Machine Perfusion solution containing solution A (prepared as in Example 1), and a further eight kidneys were perfused with Belzer Machine Perfusion solution containing Solution B (prepared as in Example 1).
Hourly samples (3 ml total) were taken from each kidney for at least 5 hours, and in some cases 6 hours. Blood chemistry was analyzed using a GEMStat analyzer (Instruments Laboratory, Boston, Mass.). Statistical analyses were performed using Sigmastat software (SPSS, Chicago, Ill.).

[3] = statistically significant effect relative to control perfusion solution, 5-6 h

SMILES: N[C@@H](CCC(=O)N[C@@H](CSN=O)C(=O)NCC(=O)O)C(=O)O [GSNO, S-nitrosoglutathione]
- thrombosis [1]: suppress thrombosis
- Vascular Resistance ([2]; statistically significant effect relative to control (Belzer Machine Perfusion solution only), constant pressure 40 mmHg, hourly samples 5-6 h): Lower
- Base Excess [2, 3]: More
- Ca2+ [2, 3]: Higher
- Hematocrit [2, 3]: Lower
- Oxygen Saturation [2, 3]: Equal
- Flow ([2]; statistically significant effect relative to control perfusion solution, 40 mmHg, 5-6 h): Higher
